Experimental data: patent US11135234B2, “Effective aminoglycoside antibiotic for multidrug-resistant bacteria” (MICROBIAL CHEMISTRY RESEARCH FOUNDATION, priority 2015, dated 2021)
In brackets after ≈: the same amount, converted by molar mass.

Experiments:
[1] = test system: S. aureus RN4220; experiment: MIC, agar plate dilution method, S. aureus RN4220; format: cell-based, Staphylococcus aureus; details: Staphylococcus aureus, RN4220, S. aureus RN4220, Sensitive bacterium, read-out: minimal inhibitory concentration (MIC)
Outline: (§1)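 Minimal inhibitory concentration (μg/mL) was determined by agar plate dilution following the Japan Society of Chemotherapy method.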

[2] = test system: S. aureus RN4220/pMS520; experiment: MIC, agar plate dilution method, S. aureus RN4220/pMS520; format: cell-based, Staphylococcus aureus; details: Staphylococcus aureus, MRSA, read-out: minimal inhibitory concentration (MIC), S. aureus RN4220/pMS520, MRSA
Outline: as §1

[3] = test system: S. aureus MF490; experiment: MIC, agar plate dilution method, S. aureus MF490; format: cell-based, Staphylococcus aureus; details: Staphylococcus aureus, MRSA, read-out: minimal inhibitory concentration (MIC)
Outline: as §1

[4] = test system: E. faecium ATCC19434; experiment: MIC, agar plate dilution method, E. faecium ATCC19434; format: cell-based, Enterococcus faecium; details: Enterococcus faecium, ATCC19434, E. faecium ATCC19434, read-out: minimal inhibitory concentration (MIC)
Outline: as §1

[5] = test system: E. coli JM109/pMW218; experiment: MIC, agar plate dilution method, E. coli JM109/pMW218; format: cell-based, Escherichia coli; details: Escherichia coli, JM109/PMW218, E. coli JM109/pMW218, Sensitive bacterium, read-out: minimal inhibitory concentration (MIC)
Outline: as §1

[6] = test system: K. pneumoniae ATCC BAA-1705; experiment: MIC, agar plate dilution method, K. pneumoniae ATCC BAA-1705; format: cell-based, Klebsiella pneumoniae; details: Klebsiella pneumoniae, ATCCBAA1705, K. pneumoniae ATCC BAA-1705, KPC-producing strain, read-out: minimal inhibitory concentration (MIC)
Outline: as §1

[7] = test system: K. pneumoniae ATCC BAA-2146; experiment: MIC, agar plate dilution method, K. pneumoniae ATCC BAA-2146; format: cell-based, Klebsiella pneumoniae; details: Klebsiella pneumoniae, ATCCBAA2146, K. pneumoniae ATCC BAA-2146, NDM-producing strain, read-out: minimal inhibitory concentration (MIC)
Outline: as §1

[8] = test system: A. baumannii ATCC BAA-1710; experiment: MIC, agar plate dilution method, A. baumannii ATCC BAA-1710; format: cell-based, Acinetobacter baumannii; details: Acinetobacter baumannii, ATCCBAA1710, A. baumannii ATCC BAA-1710, MDRA, read-out: minimal inhibitory concentration (MIC)
Outline: as §1

[9] = test system: S. marcescens TH-0447; experiment: MIC, agar plate dilution method, S. marcescens TH-0447; format: cell-based, Serratia marcescens; details: Serratia marcescens, TH0447, S. marcescens TH-0447, AMK-resistant, read-out: minimal inhibitory concentration (MIC)
Outline: as §1

[10] = test system: S. marcescens GN6944; experiment: MIC, agar plate dilution method, S. marcescens GN6944; format: cell-based, Serratia marcescens; details: Serratia marcescens, S. marcescens GN6944, GM-resistant, read-out: minimal inhibitory concentration (MIC)
Outline: as §1

[11] = test system: P. aeruginosa PAO1; experiment: MIC, agar plate dilution method, P. aeruginosa PAO1; format: cell-based, Pseudomonas aeruginosa; details: Pseudomonas aeruginosa, PAO1, P. aeruginosa PAO1, Sensitive bacterium, read-out: minimal inhibitory concentration (MIC)
Outline: as §1

[12] = test system: P. aeruginosa PAO1/GN315; experiment: MIC, agar plate dilution method, P. aeruginosa PAO1/GN315; format: cell-based, Pseudomonas aeruginosa; details: Pseudomonas aeruginosa, read-out: minimal inhibitory concentration (MIC), P. aeruginosa PAO1/GN315, AMK-resistant
Outline: as §1

[13] = test system: P. aeruginosa MSC17707; experiment: MIC, agar plate dilution method, P. aeruginosa MSC17707; format: cell-based, Pseudomonas aeruginosa; details: Pseudomonas aeruginosa, MSC17707, P. aeruginosa MSC17707, AMK-resistant, read-out: minimal inhibitory concentration (MIC)
Outline: as §1

[14] = test system: P. aeruginosa MSC01035; experiment: MIC, agar plate dilution method, P. aeruginosa MSC01035; format: cell-based, Pseudomonas aeruginosa; details: Pseudomonas aeruginosa, P. aeruginosa MSC01035, ABK-resistant, read-out: minimal inhibitory concentration (MIC)
Outline: as §1

CNC1C(O[C@H]2OC(C)[C@@H](N)[C@H](O)C2O)O[C@H]2CC(N)[C@@H](O[C@H]3CC[C@H](N)CC3N)OC2C1O (stereo partly shown) [Compound R6, 5,6,6″-trideoxyapramycin]
MIC [1]: 2 µg/mL (≈ 4.07 µM) | MIC [2]: 2 µg/mL (≈ 4.07 µM) | MIC [3]: 8 µg/mL (≈ 16.3 µM) | MIC [4]: 16 µg/mL (≈ 32.5 µM) | MIC [5]: 1 µg/mL (≈ 2.03 µM) | MIC [6]: 2 µg/mL (≈ 4.07 µM) | MIC [7]: 1 µg/mL (≈ 2.03 µM) | MIC [8]: 8 µg/mL (≈ 16.3 µM) | MIC [9]: 8 µg/mL (≈ 16.3 µM) | MIC [10]: 4 µg/mL (≈ 8.14 µM) | MIC [11]: 8 µg/mL (≈ 16.3 µM) | MIC [12]: 8 µg/mL (≈ 16.3 µM) | MIC [13]: 16 µg/mL (≈ 32.5 µM) | MIC [14]: 16 µg/mL (≈ 32.5 µM)

CNC1C(O[C@H]2OC(CO)[C@@H](NC)[C@H](O)C2O)O[C@H]2CC(N)[C@@H](O[C@H]3CC(O)[C@H](N)CC3N)OC2C1O (stereo partly shown) [Compound S1-a, 5-deoxy-4″-N-methylapramycin]
MIC [1]: 2 µg/mL (≈ 3.72 µM) | MIC [2]: 2 µg/mL (≈ 3.72 µM) | MIC [3]: 8 µg/mL (≈ 14.9 µM) | MIC [4]: 32 µg/mL (≈ 59.5 µM) | MIC [5]: 1 µg/mL (≈ 1.86 µM) | MIC [6]: 1 µg/mL (≈ 1.86 µM) | MIC [7]: 1 µg/mL (≈ 1.86 µM) | MIC [8]: 8 µg/mL (≈ 14.9 µM) | MIC [9]: 8 µg/mL (≈ 14.9 µM) | MIC [10]: 4 µg/mL (≈ 7.44 µM) | MIC [11]: 4 µg/mL (≈ 7.44 µM) | MIC [12]: 4 µg/mL (≈ 7.44 µM) | MIC [13]: 4 µg/mL (≈ 7.44 µM) | MIC [14]: 4 µg/mL (≈ 7.44 µM)

CNC1C(O[C@H]2OC(CO)[C@@H](NCCN)[C@H](O)C2O)O[C@H]2CC(N)[C@@H](O[C@H]3CC(O)[C@H](N)CC3N)OC2C1O (stereo partly shown) [Compound S1-b, 4″-N-(2-aminoethyl)-5-deoxyapramycin]
MIC [1]: 2 µg/mL (≈ 3.53 µM) | MIC [2]: 1 µg/mL (≈ 1.76 µM) | MIC [3]: 4 µg/mL (≈ 7.06 µM) | MIC [4]: 8 µg/mL (≈ 14.1 µM) | MIC [5]: 0.5 µg/mL (≈ 0.882 µM) | MIC [6]: 1 µg/mL (≈ 1.76 µM) | MIC [7]: 1 µg/mL (≈ 1.76 µM) | MIC [8]: 4 µg/mL (≈ 7.06 µM) | MIC [9]: 8 µg/mL (≈ 14.1 µM) | MIC [10]: 4 µg/mL (≈ 7.06 µM) | MIC [11]: 4 µg/mL (≈ 7.06 µM) | MIC [12]: 4 µg/mL (≈ 7.06 µM) | MIC [13]: 4 µg/mL (≈ 7.06 µM) | MIC [14]: 4 µg/mL (≈ 7.06 µM)

CNC1C(O[C@H]2OC(CO)[C@@H](NCCCN)[C@H](O)C2O)O[C@H]2CC(N)[C@@H](O[C@H]3CC(O)[C@H](N)CC3N)OC2C1O (stereo partly shown) [Compound S1-c, 4″-N-(3-aminopropyl)-5-deoxyapramycin]
MIC [1]: 2 µg/mL (≈ 3.44 µM) | MIC [2]: 2 µg/mL (≈ 3.44 µM) | MIC [3]: 4 µg/mL (≈ 6.89 µM) | MIC [4]: 8 µg/mL (≈ 13.8 µM) | MIC [5]: 1 µg/mL (≈ 1.72 µM) | MIC [6]: 1 µg/mL (≈ 1.72 µM) | MIC [7]: 1 µg/mL (≈ 1.72 µM) | MIC [8]: 8 µg/mL (≈ 13.8 µM) | MIC [9]: 8 µg/mL (≈ 13.8 µM) | MIC [10]: 8 µg/mL (≈ 13.8 µM) | MIC [11]: 4 µg/mL (≈ 6.89 µM) | MIC [12]: 4 µg/mL (≈ 6.89 µM) | MIC [13]: 8 µg/mL (≈ 13.8 µM) | MIC [14]: 8 µg/mL (≈ 13.8 µM)

CNC1C(O[C@H]2OC(CO)[C@@H](NC(CN)CN)[C@H](O)C2O)O[C@H]2CC(N)[C@@H](O[C@H]3CC(O)[C@H](N)CC3N)OC2C1O (stereo partly shown) [Compound S1-d, 4″-N-(1,3-diaminopropan-2-yl)-5-deoxyapramycin]
MIC [1]: 1 µg/mL (≈ 1.68 µM) | MIC [2]: 1 µg/mL (≈ 1.68 µM) | MIC [3]: 4 µg/mL (≈ 6.71 µM) | MIC [4]: 16 µg/mL (≈ 26.9 µM) | MIC [5]: 1 µg/mL (≈ 1.68 µM) | MIC [6]: 1 µg/mL (≈ 1.68 µM) | MIC [7]: 1 µg/mL (≈ 1.68 µM) | MIC [8]: 8 µg/mL (≈ 13.4 µM) | MIC [9]: 8 µg/mL (≈ 13.4 µM) | MIC [10]: 4 µg/mL (≈ 6.71 µM) | MIC [11]: 2 µg/mL (≈ 3.36 µM) | MIC [12]: 4 µg/mL (≈ 6.71 µM) | MIC [13]: 4 µg/mL (≈ 6.71 µM) | MIC [14]: 4 µg/mL (≈ 6.71 µM)
